Reference: ChEMBL document CHEMBL4000202, “Identification of a diverse synthetic abietane diterpenoid library for anticancer activity” (Bioorg Med Chem Lett, 2017)
Active and inactive are the calls of the source. The rule behind the calls is not given here.

Legend:
SK-OV-3 = assay: Cytotoxic activity against human SKOV3 cells assessed as reduction in cell viability after 72 hrs by SRB assay; assay type: functional, cell-based; details: SK-OV-3, 72 h
PC-3 = assay: Cytotoxic activity against human PC3 cells assessed as reduction in cell viability after 72 hrs by SRB assay; assay type: functional, cell-based; details: PC-3, 72 h
A549 [1] = assay: Cytotoxic activity against human A549 cells assessed as reduction in cell viability after 72 hrs by SRB assay; assay type: functional, cell-based; details: A549, 72 h
HFF = assay: Cytotoxic activity against HFF cells assessed as reduction in cell viability; assay type: cell-based; details: Homo sapiens
L02 = assay: Cytotoxic activity against human HL7702 cells; assay type: cell-based
HCT-116 = assay: Cytotoxic activity against human HCT116 cells assessed as reduction in cell viability; assay type: functional, cell-based
SK-BR-3 = assay: Cytotoxic activity against human SKBR3 cells assessed as reduction in cell viability; assay type: functional, cell-based
A549 [2] = assay: Induction of apoptosis in human A549 cells assessed as increase in Bax level after 36 hrs by Western blot method; assay type: functional, cell-based
A549 [3] = assay: Induction of apoptosis in human A549 cells assessed as necrotic cells at 5 uM after 36 hrs by Annexin V/propidium iodide based flow cytometric analysis (reference value: 0.2%); assay type: functional
A549 [4] = assay: Induction of apoptosis in human A549 cells assessed as decrease in Bcl-2 level after 36 hrs by Western blot method; assay type: functional, cell-based
A549 [5] = assay: Induction of apoptosis in human A549 cells assessed as genomic DNA fragmentation at 5 uM after 24 hrs by FITC/DAPI staining based TUNEL assay; assay type: functional, cell-based
A549 [6] = assay: Induction of apoptosis in human A549 cells assessed as reduction in mitochondrial membrane potential at 5 uM after 24 hrs using JC-1 dye based spectrofluorometry; assay type: functional, cell-based
A549 [7] = assay: Potency index, ratio of 5-FU IC50 to compound IC50 for human A549 cells; assay type: functional
LNCaP = assay: Cytotoxic activity against human LNCAP cells assessed as reduction in cell viability; assay type: functional, cell-based
A549 [8] = assay: Effect on tubulin in human A549 cells at 1 to 100 uM after 18 hrs; assay type: cell-based
A549 [9] = assay: Induction of apoptosis in human A549 cells assessed as increase in cleaved PARP level after 36 hrs by Western blot method; assay type: functional, cell-based
A549 [10] = assay: Induction of apoptosis in human A549 cells assessed as ROS generation at 1 to 100 uM after 18 hrs; assay type: functional, cell-based
MDA-MB-231 = assay: Cytotoxic activity against human MDA-MB-231 cells assessed as reduction in cell viability; assay type: functional, cell-based
A549 [11] = assay: Induction of apoptosis in human A549 cells assessed as increase in cytochrome c level after 36 hrs by Western blot method; assay type: functional, cell-based
MCF7 = assay: Cytotoxic activity against human MCF7 cells assessed as reduction in cell viability; assay type: functional, cell-based
A549 [12] = assay: Induction of apoptosis in human A549 cells assessed as decrease in PARP level after 36 hrs by Western blot method; assay type: functional, cell-based
A549 [13] = assay: Induction of apoptosis in human A549 cells assessed as early apoptotic cells at 5 uM after 36 hrs by Annexin V/propidium iodide based flow cytometric analysis (reference value: 0.5%); assay type: functional
A549 [14] = assay: Induction of apoptosis in human A549 cells assessed as increase in cleaved caspase-3 level after 36 hrs by Western blot method; assay type: functional, cell-based
A549 [15] = assay: Induction of apoptosis in human A549 cells assessed as late apoptotic cells at 5 uM after 36 hrs by Annexin V/propidium iodide based flow cytometric analysis (reference value: 2.3%); assay type: functional

SMILES: COC(=O)[C@]1(C)CCC[C@]2(C)c3ccc(C(C)C)cc3CC[C@@H]12 [METHYL DEHYDROABIETATE]
- IC50 (SK-OV-3): 51.3 µM
- IC50 (PC-3): 37.7 µM
- IC50 (A549 [1]): 41.2 µM

SMILES: C=C1[C@H](O[Si](C)(C)C(C)(C)C)CC[C@]2(C)c3ccccc3CC[C@@H]12
- IC50 (SK-OV-3): 91.8 µM
- IC50 (PC-3): > 100 µM
- IC50 (A549 [1]): 97.9 µM

SMILES: COc1cccc2c1CC[C@H]1C3=C(CC[C@]21C)C(=O)OC3
- IC50 (SK-OV-3): > 100 µM
- IC50 (PC-3): > 100 µM
- IC50 (A549 [1]): > 100 µM

SMILES: COc1c(C(C)C)ccc2c1C=C[C@H]1C3=C(CC[C@]21C)C(=O)OC3
- IC50 (SK-OV-3): > 100 µM
- IC50 (PC-3): > 100 µM
- IC50 (A549 [1]): > 100 µM

SMILES: COc1c(C(C)C)ccc2c1CC=C1C3=C(CCC12C)C(=O)OC3 (single isomer, unassigned)
- IC50 (SK-OV-3): 24 µM
- IC50 (PC-3): 48 µM
- IC50 (A549 [1]): 74.9 µM

SMILES: C=C1C(=O)CC[C@]2(C)c3cccc(OC)c3CC[C@@H]12
- IC50 (SK-OV-3): 3.31 µM
- IC50 (PC-3): 5.01 µM
- IC50 (A549 [1]): 5.47 µM

SMILES: COc1c(C(C)C)ccc2c1CC[C@H]1C3=C(CC[C@]21C)C(=O)OC3
- IC50 (SK-OV-3): 49.8 µM
- IC50 (PC-3): 50.4 µM
- IC50 (A549 [1]): 98.8 µM

SMILES: COC(=O)[C@]1(C)CCC[C@]2(C)c3cc([N+](=O)[O-])c(C(C)C)cc3CC[C@@H]12
- IC50 (SK-OV-3): 47.8 µM
- IC50 (PC-3): 81.9 µM
- IC50 (A549 [1]): 89.4 µM

SMILES: CC(C)(C)[Si](C)(C)O[C@@H]1CC[C@]2(C)c3ccccc3CC[C@H]2[C@H]1CO
- IC50 (SK-OV-3): > 100 µM
- IC50 (PC-3): > 100 µM
- IC50 (A549 [1]): > 100 µM

SMILES: CC(C)c1ccc2c(c1O)C(=O)C[C@H]1C3=C(CC[C@]21CO)C(=O)OC3
- IC50 (SK-OV-3): 95.4 µM
- IC50 (PC-3): 92.2 µM
- IC50 (A549 [1]): > 100 µM

SMILES: CCOCO[C@]12CCC[C@]3(CO1)c1ccc(C(C)C)c(OC)c1C(=O)C[C@@H]23
- IC50 (HFF): 16.1 to 22.4 µM
- IC50 (L02): 16.1 to 22.4 µM
- IC50 (HCT-116): 1100 to 4500 nM
- IC50 (SK-BR-3): 1100 to 4500 nM
- Activity (A549 [2]): Dose-dependent effect
- Activity (A549 [3]): 1.3%
- Activity (A549 [4]): Active
- Activity (A549 [5]): Active
- Activity (A549 [6]): Active
- IC50 (SK-OV-3): 1.57 µM
- Ratio IC50 (A549 [7]): 24
- IC50 (LNCaP): 1100 to 4500 nM
- IC50 (PC-3): 2.58 µM
- Activity (A549 [8]): inactive
- Activity (A549 [9]): Dose-dependent effect
- Activity (A549 [10]): inactive
- IC50 (MDA-MB-231): 1100 to 4500 nM
- IC50 (A549 [1]): 1.32 µM
- Activity (A549 [11]): Dose-dependent effect
- IC50 (MCF7): 1100 to 4500 nM
- Activity (A549 [12]): Active
- Activity (A549 [13]): 1.3%
- Activity (A549 [14]): Dose-dependent effect
- Activity (A549 [15]): 15.8%

SMILES: COC(=O)[C@]1(C)CCC[C@]2(C)c3ccc(C(C)C)c(OC)c3C(=O)C[C@@H]12
- IC50 (SK-OV-3): > 100 µM
- IC50 (PC-3): 99.4 µM
- IC50 (A549 [1]): > 100 µM

SMILES: COc1c(C(C)C)ccc2c1CC[C@H]1C(=O)CCC[C@]21CO[N+](=O)[O-]
- IC50 (SK-OV-3): > 100 µM
- IC50 (PC-3): > 100 µM
- IC50 (A549 [1]): > 100 µM

SMILES: COc1c(C(C)C)ccc2c1CC[C@@]1(O)C3=C(CC[C@]21C)C(=O)OC3
- IC50 (SK-OV-3): > 100 µM
- IC50 (PC-3): > 100 µM
- IC50 (A549 [1]): > 100 µM
